As usually defined, the IC50 is the midpoint of a concentration-inhibition curve.

The structures appear in SMILES notation. Where a name gives a salt, the structure may show the parent alone. Read-outs that look alike come from different tables or passages of the source.

This is an account of results in patent US5177087A, “Cyclic amine compounds and their use” (Takeda Chemical Industries, Ltd., priority 1989, dated 1993).

For one assay, the target named is T1, cholinesterase (Rattus norvegicus, UniProt P37136).
T1 construct: the S1 fraction of the cerebral cortex homogenate from male Wistar rats was used as cholinesterase source; from tissue; host or cells: cerebral cortex homogenate, S1 fraction, male Wistar rats
Put plainly: Anti-cholinesterase action, (acetyl-[^3 H])-acetylcholine as substrate, S1 fraction of cerebral cortex homogenate. It counts as biochemical, male Wistar rats. On the procedure:
The anti-cholinesterase action of the compound of the present invention was investigated using (acetyl-[^3 H])-acetylcholine. Thus, the S1 fraction of the cerebral cortex homogenate from male Wistar rats was used as cholinesterase source, and (acetyl-[^3 H])-acetylcholine as the substrate and the compound of the invention as the test compound were incubated for 30 minutes and after termination of the reaction, a toluene scintillator was added. The mixture was shaken and the radioactivity of the reaction product [^3 H]-acetic acid in the toluene layer was measured with a scintillation counter to estimate the cholinesterase-antagonizing activity.
The anticholinesterase activity of the test compound was expressed as 50% inhibitory concentration (IC50) in Table 9.

A short description of assay [1]: Antihypoxic action: survival time of mice in a decompressed desiccator. It counts as in vivo, Male mice (ICR/Jcl strain). As to conditions: Mus musculus, ip, read-out: survival time of drug-treated group (mean survival time of control group = 100). On the procedure: Male mice (ICR/Jcl strain, 5-6 weeks old) were divided into two groups, i.e. a control group and a drug-treated group. A desiccator was decompressed to an internal pressure of 35 mmHg with a vacuum pump and, then, connected to two desiccators housing mice of the two groups, respectively. After an equilibrium was established in internal pressure among the desiccators, the time to the onset of respiratory arrest of each mouse in each group was measured and regarded as survival time. Then, taking the mean survival time in the control group as 100, the survival time of the drug-treated group was expressed in percentage (Table 7). The test drug was administered intraperitoneally 30 minutes before induction of hypoxia. The control group received physiological saline.

Assay [2] in a line: Antiedematous action on the brain: microsphere-induced cerebral edema, water, sodium and ion contents of hemisphere. It counts as in vivo, Male rats (Wistar/Jcl). As to conditions: 72 hours after microsphere infusion. The source says: Male rats (Wistar/Jcl, 11 weeks old) underwent cervical incision under ether anesthesia and the pterygopalatine artery and external carotid artery were ligated. After blockade of the common carotid artery bloodstream, a cannula was inserted retrogradely from the external carotid artery and indwelt at the origin of the internal carotid artery. Then, a suspension of carbon microspheres (50±10 μm in diameter) in 20% dextran was infused selectively into the internal carotid artery through the indwelt cannula over a period of about 10 seconds. Seventy-two hours after infusion, the brain was removed and divided into the right and left cerebral hemispheres. Then, the water, sodium and ion contents of each hemisphere were determined. The test drug was administered intraperitoneally 30 minutes before and 5 hours after infusion of the microspheres on the day of microsphere infusion and twice a day, i.e. in the morning and in the afternoon, thereafter till the end of the experiment. 5% Gum arabic was used in the control group.

Assay [3] in a line: Action on scopolamine-induced impairment of spontaneous alternation in a T-maze. It counts as in vivo, rats. How it is done:
The nootropic effect of the compound of the invention (Example 59) was investigated using spontaneous alternation in rats (Murray and Fibiger, Behav Neurosci. 100, 23-32, 1986) as an indicator. Nine-week-old rats were used. Feeding was restricted so that the body weight of the rat would be reduced to about 80% of free-feeding weight. Then, training was started. Training consisted of 11 trials. In the first trial one food pellet (45 mg) was placed in each of food receptacles set at ends of two arms and the rat was allowed to select either arm freely for the food reward. In the subsequent 10 trials from the second to the eleventh trial, the diet was placed only on the arm opposite to the arm which had been selected immediately before. The selection of the arm where the diet was placed was regarded as a correct response. In each acquistion trial, the rat was first placed in a home compartment and 15 seconds later the door was opened to let the animal explore freely and select either arm. The rat was brought back to the home compartment after it had ingested the pellet in the case of a correct response or after it had reached the food receptacle in the case of an incorrect response. In the experiment, the rats which had attained the correct response rate of not less than 80% were used. Scopolamine bromide was administered intraperitoneally in a dose of 0.3 mg/kg 30 minutes before the beginning of the experiment and the test compound (Example 59) was administered orally 30 minutes before scopolamine administration. The results of the experiment are expressed in correct response rate. For the analysis of significant difference between the groups, Student's t-test (two-tailed) was used. In the first experiment, groups of 7-9 rats were used, and in the second experiment, groups of 12-14 rats were used. The results are shown in Table 10 (the results in the second experiment are shown in the parentheses).

The mark [4] stands for this setting: 30 minutes incubation, read-out: Anticholinesterase activity IC50.
Where [5] appears, read: 10 mg/kg, i.p., 30 minutes before hypoxia, 35 mmHg.

T1 sequence (P37136 32-614): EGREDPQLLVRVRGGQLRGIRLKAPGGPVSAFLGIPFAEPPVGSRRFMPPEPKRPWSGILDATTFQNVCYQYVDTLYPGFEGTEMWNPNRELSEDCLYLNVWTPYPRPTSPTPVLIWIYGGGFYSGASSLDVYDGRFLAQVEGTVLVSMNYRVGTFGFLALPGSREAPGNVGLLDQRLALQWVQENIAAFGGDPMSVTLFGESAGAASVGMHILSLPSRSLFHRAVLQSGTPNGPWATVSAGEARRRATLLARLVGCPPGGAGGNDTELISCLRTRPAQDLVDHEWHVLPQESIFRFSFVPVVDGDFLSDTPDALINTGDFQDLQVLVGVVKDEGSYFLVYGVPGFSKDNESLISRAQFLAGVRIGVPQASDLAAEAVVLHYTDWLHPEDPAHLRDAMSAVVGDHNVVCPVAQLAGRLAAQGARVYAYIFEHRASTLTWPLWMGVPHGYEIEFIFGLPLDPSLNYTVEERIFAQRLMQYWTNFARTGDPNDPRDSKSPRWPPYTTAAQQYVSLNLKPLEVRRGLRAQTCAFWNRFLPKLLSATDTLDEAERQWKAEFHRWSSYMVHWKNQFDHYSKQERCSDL

`O=C(CCC1CCN(Cc2ccccc2)CC1)c1ccc(N2CCNCC2)cc1` [Example 60-17]: at cholinesterase (setting [4]), the IC50 was determined as 6.1 nM.

In the case of `O=C(CCC1CCN(Cc2ccccc2)CC1)c1ccc(N2CCCCCC2)cc1` [Example 60-2], the IC50 on cholinesterase (setting [4]) turned out to be 250 nM.

For the compound `O=C(CCC1CCN(Cc2ccccc2)CC1)c1ccc(N2CCCC2)cc1` [Example 60-12], at cholinesterase (setting [4]), the IC50 stood at 28 nM.

Turning to `O=C(CCC1CCN(Cc2ccccc2)CC1)c1ccc(-n2ccnc2)cc1` [Example 60-6], the IC50 at cholinesterase (setting [4]) came out at 20 nM.

Take `c1ccc(CC2CCN(c3ccc(CC4CCNCC4)cc3)CC2)cc1` [Example 21-2]: in assay [1], the response vs control in vivo at 0.1 mg/kg is 165 ± 26%, the response vs control in vivo at 0.5 mg/kg amounted to 147 ± 14% and the response vs control in vivo at 2 mg/kg turned out to be 147 ± 8%. Besides, the response vs control in vivo at 10 mg/kg in assay [1] (setting [5]) worked out at 280 ± 59%.

For the compound `OC(c1ccc(N2CCC(Cc3ccccc3)CC2)cc1)C1CCNCC1` (centres unmarked) [Example 14-3], in assay [1], the response vs control in vivo at 0.1 mg/kg stood at 108 ± 9%, the response vs control in vivo at 0.5 mg/kg is 162 ± 24% and the response vs control in vivo at 2 mg/kg was 137 ± 11%. For the same compound, the response vs control in vivo at 10 mg/kg in assay [1] (setting [5]) was 398 ± 95%.

As to `OC(c1ccncc1)c1ccc(N2CCCCC2)cc1` (stereo not drawn) [Example 12, 4-[(α-Hydroxy-4-piperidino)benzyl]pyridine dihydrochloride], in assay [1], the response vs control in vivo at 0.1 mg/kg was found to be 84 ± 4%, the response vs control in vivo at 0.5 mg/kg stood at 152 ± 19% and the response vs control in vivo at 2 mg/kg turned out to be 163 ± 23%. In assay [1] (setting [5]), the response vs control in vivo at 10 mg/kg amounted to 132 ± 8%.

With `O=C(c1ccc(N2CCN(Cc3ccccc3)CC2)cc1)C1CCNCC1` [Example 11-4], in assay [1], the response vs control in vivo at 0.1 mg/kg stood at 116 ± 11%, the response vs control in vivo at 0.5 mg/kg amounted to 148 ± 17% and the response vs control in vivo at 2 mg/kg came to 288 ± 82%. Moreover, in assay [1] (setting [5]), the response vs control in vivo at 10 mg/kg came out at 216 ± 53%.

With `O=C(CCC1CCN(Cc2ccccc2)CC1)c1ccc(N2CCCCC2)cc1` [Example 60-15], the IC50 at cholinesterase (setting [4]) turned out to be 61 nM.

As for `O=C(CCC1CCN(Cc2ccccc2)CC1)c1ccc(N2CCN(C(c3ccccc3)c3ccccc3)CC2)cc1` [Example 60-21], the IC50 at cholinesterase (setting [4]) was 710 nM.

For `O=C(CCC1CCN(Cc2ccccc2)CC1)c1ccc(N2CCOCC2)cc1` [Example 60-20], on cholinesterase (setting [4]), the half-maximal inhibitory concentration (IC50) amounted to 15 nM.

Take `O=C(CCC1CCN(Cc2ccccc2)CC1)c1ccc(N2CCCCC2)cc1` [Example 60-1]: the IC50 at cholinesterase (setting [4]) amounted to 52 nM.

`CC(=O)N1CCN(c2ccc(C(=O)CCC3CCN(Cc4ccccc4)CC3)cc2)CC1` [Example 60-19]: at cholinesterase (setting [4]), the IC50 came to 2.9 nM.

For `CN1CCN(c2ccc(C(=O)CCC3CCN(Cc4ccccc4)CC3)cc2)CC1` [Example 60-7], on cholinesterase (setting [4]), the concentration for half-maximal inhibition (IC50) came to 8.4 nM.

For the compound `CCNc1ccc(C(=O)CCC2CCN(Cc3ccccc3)CC2)cc1` [Example 60-4], the IC50 at cholinesterase (setting [4]) was 98 nM.

Turning to `OC(c1ccc(N2CCCCC2)cc1N1CCCCC1)C1CCNCC1` (centres unmarked) [Example 14-6], in assay [2] (50 mg × 7, i.p., control group 80.35 ± 0.22), the Water is given as 79.36 ± 0.13%. Also, the Na in assay [2] (50 mg × 7, i.p., control group 305 ± 19) is listed as 256 ± 5 mEq/kg. Further, the K in assay [2] (50 mg × 7, i.p., control group 488 ± 11) stood at 506 ± 5 mEq/kg. In assay [1], the response vs control in vivo at 0.1 mg/kg is 120 ± 7%, the response vs control in vivo at 0.5 mg/kg was determined as 154 ± 17% and the response vs control in vivo at 2 mg/kg was 143 ± 17%. For the same compound, the response vs control in vivo at 10 mg/kg in assay [1] (setting [5]) turned out to be 123 ± 6%.

In the case of `O=C(CCC1CCN(Cc2ccccc2)CC1)c1ccc(N2CCCC2)cc1` [Example 60-10], the half-maximal inhibitory concentration (IC50) on cholinesterase (setting [4]) came to 40 nM.

In the case of `O=C(CCC1CCN(Cc2ccccc2)CC1)c1ccc(N2CCOCC2)cc1` [Example 60-5], the IC50 at cholinesterase (setting [4]) was found to be 10 nM.

Turning to `CN1CCN(c2ccc(C(=O)CCC3CCN(Cc4ccccc4)CC3)cc2)CC1` [Example 60-14], the 50% inhibitory concentration (IC50) at cholinesterase (setting [4]) was 6.8 nM.

For `O=C(CCC1CCN(Cc2ccccc2)CC1)c1ccc(NCCN2CCCCC2)cc1` [Example 60-22], the IC50 at cholinesterase (setting [4]) was found to be 17 nM.

Regarding `CN(C)c1ccc(CC2CCNCC2)cc1` [Example 20, 4-(4-Dimethylaminobenzyl)piperidine dihydrochloride], in assay [2] (5 mg × 7, i.p., control group 80.59 ± 0.19), the Water is recorded as 79.80 ± 0.19%. The Na in assay [2] (5 mg × 7, i.p., control group 306 ± 10) is on record as 268 ± 8 mEq/kg. Also, the K in assay [2] (5 mg × 7, i.p., control group 488 ± 2) turned out to be 499 ± 5 mEq/kg. For the same compound, in assay [1], the response vs control in vivo at 0.5 mg/kg turned out to be 99 ± 5% and the response vs control in vivo at 2 mg/kg turned out to be 118 ± 5%.

Turning to `CNc1ccc(C(=O)CCC2CCN(Cc3ccccc3)CC2)cc1` [Example 60-8], the IC50 on cholinesterase (setting [4]) came out at 150 nM.

As to `OC(c1ccc(N2CCN(Cc3ccccc3)CC2)cc1)C1CCNCC1` (centres unmarked) [Example 14-4], in assay [1], the response vs control in vivo at 0.5 mg/kg was 152 ± 28% and the response vs control in vivo at 2 mg/kg is 188 ± 22%. For the same compound, the response vs control in vivo at 10 mg/kg in assay [1] (setting [5]) was 197 ± 32%.

For the compound `O=C(CCCC1CCN(Cc2ccccc2)CC1)c1ccc(N2CCCC2)cc1` [Example 69, 1-Benzyl-4-[3-(4-pyrrolidinobenzoyl)propyl]piperidine fumarate], the IC50 on cholinesterase (setting [4]) was determined as 220 nM.

`CN(C)c1ccc(C(=O)CCC2CCN(Cc3ccccc3)CC2)cc1` [Example 60-3]: the half-inhibitory concentration (IC50) on cholinesterase (setting [4]) came out at 53 nM.

As for `O=C(CCC1CCN(Cc2ccccc2)CC1)c1ccc(N2CCCC2)cc1` [Example 60-11], the IC50 at cholinesterase (setting [4]) turned out to be 32 nM.

`O=C(CCC1CCN(Cc2ccccc2)CC1)c1ccc(N2CCCC2)cc1` [Example 59, 1-Benzyl-4-[2-(4-pyrrolidinobenzoyl)ethyl]piperidine]: the “Mean correct response rate ± standard error” value in assay [3] (3 mg/kg p.o. + scopolamine 0.3 mg/kg i.p., first experiment, scopolamine control 53.8 ± 4.6) was 61.4 ± 7.1. Moreover, the “ameliorative effect on correct response rate” value in assay [3] (10 mg/kg) was “significant ameliorative effect”. Also, the “antagonism of the decrease of correct response rate by scopolamine” value in assay [3] (3 and 10 mg/kg p.o.) is reported as “dose-dependently antagonized”. At cholinesterase (Anticholinesterase activity IC50, 30 minutes incubation), this compound yielded an IC50 of 27 nM.

Consider `CN(C)c1ccc(C(=O)CCC2CCN(Cc3ccccc3)CC2)cc1` [Example 60-13], for which, at cholinesterase (setting [4]), the IC50 turned out to be 48 nM.

As to `c1cc(N2CCCCC2)ccc1CC1CCNCC1` [Example 21-1, 4-(4-piperidinobenzyl)piperidine dihydrochloride], in assay [1], the response vs control in vivo at 0.1 mg/kg was found to be 133 ± 11%, the response vs control in vivo at 0.5 mg/kg came to 155 ± 21%, the response vs control in vivo at 2 mg/kg was determined as 231 ± 59% and the response vs control in vivo at 10 mg/kg was found to be 277 ± 55%.
